System: L929 cells
Test: Cytotoxicity in accordance with ISO 10993-5:2009 with L929 cells
Type: cell-based
Details: prepolymer A cured with an equivalent amount of curing agent
Protocol: The prepolymer A was cured with an equivalent amount of 2. The cytotoxicity was measured in accordance with ISO 10993-5:2009 with L929 cells. […] The system can therefore not be classed as being cytotoxic.

SMILES: CCOC(=O)CC(NCCCCCCNCCCCCCNC(CC(=O)OCC)C(=O)OCC)C(=O)OCC (stereo not shown) [Curing agent 2, triethyl 4-oxo-3-oxa-7,14,21-triazatricosane-6,22,23-tricarboxylate]
- Cytotoxicity (cell viability): No reduction in cell viability
